A word on the EC50: it is the concentration at which the effect is half-maximal. Higher therefore signals weaker potency.

In the test the target is T1, Tau K18 fragment aggregates (amino acids 244 to 372 of human Tau441) (Homo sapiens, UniProt P10636).
T1 construct: encompassing amino acids 244 to 372 of the longest isoform (2N4R) of human Tau441; host or cells: bacteria
T1 sequence (P10636 561-689): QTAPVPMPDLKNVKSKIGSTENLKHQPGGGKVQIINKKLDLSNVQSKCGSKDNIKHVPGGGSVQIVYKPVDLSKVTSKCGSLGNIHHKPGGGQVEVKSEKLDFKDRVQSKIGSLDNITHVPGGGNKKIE
Kind of test: Tau K18 disaggregation assay by ThT. In kind it is biochemical. Conditions: ThT fluorescence; 2 μM K18 aggregates, 30 minutes at RT. The method, then:
Tau K18 Disaggregation Assay by ThT
The Tau K18 fragment, encompassing amino acids 244 to 372 of the longest isoform (2N4R) of human Tau441, was expressed in bacteria and purified or bought from SignalChem. For the K18 disaggregation assay by ThT, 35 μM of recombinant K18 in PBS were aggregated for 24 hours at 37° C. in presence of 50 μM of heparin (Sigma-Aldrich) and 10 mM of DTT (Sigma-Aldrich) under shaking at 750 RPM. Compounds were dissolved in anhydrous dimethyl sulfoxide (DMSO, Sigma-Aldrich) to reach a concentration of 10 mM. K18 aggregates and serial dilutions of compounds were mixed together in PBS (volume 50 μL) to a final concentration of 2 μM of K18 aggregates and from 160 to 0.04 μM of compounds. The mixture was incubated for 30 minutes at room temperature (RT), then 40 μL of this mixture were transferred into a black 384-well plate assay (Perkin-Elmer) and mixed with 10 μL of 100 μM ThT in 250 mM glycine (both from Sigma-Aldrich) in PBS. Fluorescence (relative fluorescence units; RFU) was measured in monoplicate or duplicate on a Tecan reader (excitation: 440 nm; emission: 485 nm). Percentage of K18 disaggregation was then calculated and half maximal effective concentration (E050) was determined using GraphPad Prism version 5 (GraphPad Software) assuming a one-binding site fitting model.
`C[C@H]1CN(c2ccc(N3CCc4c([nH]c5ccccc45)C3)nn2)CCO1` [Example 118] displayed an EC50 of less than 10 µM.
Take `c1ccc2c3c([nH]c2c1)CN(c1nc2ccc(N4CCOCC4)cc2o1)CC3` [Example 102]: the EC50 is less than 10 µM.
Then `c1ccc2c3c([nH]c2c1)CN(c1ccc(N2CCOCC2)nn1)CC3` [Example 68], with less than 10 µM.
`CN1CCN(c2ccc(N3CCc4c([nH]c5cc(F)ccc45)C3)cc2)CC1` [Example 62] gave an EC50 of 10 to 25 µM.
Then `c1ccc2c3c([nH]c2c1)CN(c1ccc(N2CCOCC2)cc1)CC3` [Example 59], with less than 10 µM; and `Fc1ccc2c3c([nH]c2c1)CN(c1ccc(N2CCOCC2)cc1)CC3` [Example 57], with less than 10 µM; and `Fc1ccc2[nH]c3c(c2c1)CCN(c1ccc(N2CCOCC2)cc1)C3` [Example 55], with less than 10 µM.
To `C[C@@H]1COCCN1c1ccc(N2CCc3c([nH]c4ccccc34)C2)cn1` [Example 78] belongs less than 10 µM; to `Cn1c2c(c3ccccc31)CCN(c1ccc3oc(N4CCOCC4)nc3c1)C2` [Example 100], less than 10 µM; to `Fc1ccc2[nH]c3c(c2c1)CCN(c1ccc(N2CCOCC2)cn1)C3` [Example 41], less than 10 µM.
As for `COc1ccc2[nH]c3c(c2c1)CCN(c1ccc2oc(N4CCOCC4)nc2c1)C3` [Example 33], the EC50 lay in the range of 10 to 25 µM.
Then `Fc1ccc2[nH]c3c(c2c1)CCN(c1ccc(N2CCOCC2)cc1F)C3` [Example 56], with less than 10 µM; and `Fc1ccc2[nH]c3c(c2c1)CCN(c1cc2sc(N4CCOCC4)nc2cn1)C3` [Example 49], with less than 10 µM.
Then `Fc1cccc2[nH]c3c(c12)CCN(c1ccc(N2CCOCC2)nc1)C3` [Example 87], with less than 10 µM; and `C[C@@H]1CN(c2ccc(N3CCc4c([nH]c5ccccc45)C3)nn2)C[C@H](C)O1` [Example 120], with less than 10 µM.
Then `Fc1ccc2[nH]c3c(c2c1)CCN(c1cncc(N2CCOCC2)c1)C3` [Example 50], with 10 to 25 µM.
`c1ccc2c3c([nH]c2c1)CN(c1ccc2oc(N4CCOCC4)nc2c1)CC3` [Example 99] registered an EC50 of less than 10 µM.
For `COc1ccc2c(c1)c1c(n2C)CN(c2ccc3nc(N4CCOCC4)oc3c2)CC1` [Example 20], the EC50 was less than 10 µM.
Then `C[C@@H]1CN(c2ccc(N3CCc4c([nH]c5ccccc45)C3)nn2)CCO1` [Example 119], with less than 10 µM; and `Fc1ccc2[nH]c3c(c2c1)CCN(c1ccc(N2CCOCC2)nc1)C3` [Example 40], with less than 10 µM.
`Fc1ccc2[nH]c3c(c2c1)CCN(c1ccc2nc(N4CCOCC4)ccc2c1)C3` [Example 122] yielded an EC50 of less than 10 µM.
Take `Cn1c2c(c3c(F)cccc31)CCN(c1ccc3oc(N4CCOCC4)nc3c1)C2` [Example 90]: the EC50 is less than 10 µM.
`CN(C)c1nc2cc(N3CCc4c([nH]c5ccc(F)cc45)C3)ccc2o1` [Example 28] had an EC50 of less than 10 µM.
To `c1ccc2c3c([nH]c2c1)CN(c1ccc(N2C[C@@H]4C[C@H]2CO4)nc1)CC3` [Example 86] belongs less than 10 µM.
Then `CN(C)c1nc2ccc(N3CCc4c([nH]c5ccc(F)cc45)C3)cc2o1` [Example 27], with less than 10 µM; and `COc1ccc2[nH]c3c(c2c1)CCN(c1ccc2oc(N(C)C)nc2c1)C3` [Example 39], with less than 10 µM.
Consider `CN(C)c1nc2cc(N3CCc4c([nH]c5ccc(F)cc45)C3)ccc2s1` [Example 42], for which the EC50 was less than 10 µM.
`Cn1c2c(c3ccccc31)CCN(c1nc3ccc(N4CCOCC4)cc3o1)C2` [Example 67] came in with an EC50 of less than 10 µM.
To `Fc1cccc2[nH]c3c(c12)CCN(c1ccc2oc(N4CCOCC4)nc2c1)C3` [Example 89] belongs less than 10 µM; to `Cn1c2c(c3cccc(F)c31)CCN(c1ccc3oc(N4CCOCC4)nc3c1)C2` [Example 91], less than 10 µM; to `COc1ccc2[nH]c3c(c2c1)CCN(c1ccc2nc(N(C)C)sc2c1)C3` [Example 35], less than 10 µM.
Then `Fc1ccc2c3c([nH]c2c1)CN(c1ccc2oc(N4CCOCC4)nc2c1)CC3` [Example 103], with less than 10 µM; and `Fc1ccc2[nH]c3c(c2c1)CCN(c1ccc2nc(N4CCOCC4)sc2n1)C3` [Example 54], with less than 10 µM.
Take `CN1CCN(c2cnc(N3CCc4c(n(C)c5ccccc45)C3)cn2)CC1` [Example 94]: the EC50 is 10 to 25 µM.
To `COC1CCN(c2ccc(N3CCc4c([nH]c5ccccc45)C3)nn2)CC1` [Example 117] belongs less than 10 µM.
The compound `Fc1ccc2[nH]c3c(c2c1)CCN(c1ccc2nc(N4CCOCC4)sc2c1)C3` [Example 23] gave an EC50 of less than 10 µM.
In turn, `Fc1ccc2[nH]c3c(c2c1)CCN(c1ccc2oc(N4CCOCC4)nc2c1)C3` [Example 25] returned an EC50 of less than 10 µM.
Then `COc1ccc2[nH]c3c(c2c1)CCN(c1ccc2nc(N4CCOCC4)sc2c1)C3` [Example 31], with less than 10 µM.
To `Fc1ccc2c3c([nH]c2c1)CN(c1cnc(N2CCOCC2)c(F)c1)CC3` [Example 51] belongs 10 to 25 µM; to `COc1ccc2[nH]c3c(c2c1)CCN(c1ccc2sc(N4CCOCC4)nc2c1)C3` [Example 30], less than 10 µM; to `Cn1c2c(c3ccccc31)CCN(c1ccc(C#N)nc1)C2` [Example 112], less than 10 µM.
Then `CN1CCN(c2nc3cc(N4CCc5c(n(C)c6ccccc56)C4)ccc3o2)CC1` [Example 97], with 10 to 25 µM; and `CN(C)c1nc2ccc(N3CCc4c([nH]c5ccc(F)cc45)C3)cc2s1` [Example 26], with less than 10 µM.
In turn, `Fc1cccc2c3c([nH]c12)CN(c1ccc2oc(N4CCOCC4)nc2c1)CC3` [Example 93] yielded an EC50 of less than 10 µM.
Then `Fc1cccc2c3c([nH]c12)CN(c1ccc(N2CCOCC2)nc1)CC3` [Example 92], with less than 10 µM; and `c1ccc2c3c([nH]c2c1)CN(c1ccc2sc(N4CCOCC4)nc2c1)CC3` [Example 37], with 10 to 25 µM.
Then `Cn1c2c(c3ccccc31)CCN(c1nc3cc(N4CCOCC4)ccc3o1)C2` [Example 101], with less than 10 µM; and `c1ccc2c3c([nH]c2c1)CN(c1ccc(N2C4COCC2C4)nc1)CC3` [Example 70], with less than 10 µM; and `Fc1ccc2[nH]c3c(c2c1)CCN(c1ccc2nc(N4CCOCC4)oc2c1)C3` [Example 24], with less than 10 µM.
To `CN1CCN(c2ccc(N3CCc4c(n(C)c5ccccc45)C3)cn2)CC1` [Example 95] belongs 25 to 50 µM; to `CN(C)c1nc2ccc(N3CCc4c(n(C)c5ccc(F)cc45)C3)cc2s1` [Example 29], less than 10 µM.
With `Fc1ccc2[nH]c3c(c2c1)CCN(c1ccc2sc(N4CCOCC4)nc2c1)C3` [Example 22], the EC50 is less than 10 µM.
To `c1ccc2c3c([nH]c2c1)CN(c1ccc(N2CCOC4(CCC4)C2)nc1)CC3` [Example 77] belongs less than 10 µM; to `COc1ccc2[nH]c3c(c2c1)CCN(c1ccc2sc(N(C)C)nc2c1)C3` [Example 34], less than 10 µM.
On to `Fc1ccc2[nH]c3c(c2c1)CCN(c1cnc2nc(N4CCOCC4)sc2c1)C3` [Example 53], for which the EC50 is less than 10 µM.
For the compound `C[C@@H]1CN(c2ccc(N3CCc4c([nH]c5ccccc45)C3)cn2)C[C@H](C)O1` [Example 76], the EC50 is less than 10 µM.
In turn, `Cn1c2c(c3ccccc31)CCN(c1ccc(N3CCOCC3)nn1)C2` [Example 96] returned an EC50 of less than 10 µM.
To `Fc1ccc2c3c([nH]c2c1)CN(c1ccc(N2CCOCC2)c(F)c1)CC3` [Example 52] belongs less than 10 µM; to `Fc1cc(N2CCc3c([nH]c4ccccc34)C2)ccc1N1CCOCC1` [Example 58], less than 10 µM.
In the case of `Fc1ccc2[nH]c3c(c2c1)CCN(c1ccc2ccc(N4CCOCC4)nc2c1)C3` [Example 121], the EC50 lay in the range of 10 to 25 µM.
To `N#Cc1ccc(N2CCc3c([nH]c4ccccc34)C2)cn1` [Example 113] belongs less than 10 µM.
`CN1CCN(c2nc3cc(N4CCc5c([nH]c6ccccc56)C4)ccc3o2)CC1` [Example 98]: the EC50 lay within 25 to 50 µM.
To `COc1ccc2[nH]c3c(c2c1)CCN(c1ccc2nc(N4CCOCC4)oc2c1)C3` [Example 32] belongs less than 10 µM.
With `Fc1ccc2[nH]c3c(c2c1)CCN(c1cnc(N2CCOCC2)c(F)c1)C3` [Example 48], the EC50 was less than 10 µM.
To `COc1ccc2[nH]c3c(c2c1)CCN(c1ccc2nc(N(C)C)oc2c1)C3` [Example 36] belongs less than 10 µM; to `Fc1cccc2[nH]c3c(c12)CCN(c1ccc(N2CCOCC2)cn1)C3` [Example 88], less than 10 µM.

Source of the values: patent US20210267989A1, “Novel Compounds for the Treatment, Alleviation or Prevention of Disorders Associated with Tau Aggregates” (AC Immune SA, priority 2018, published 2021).
